According to patent US9340590B2 (priority 2011, dated 2016):
Like-named read-outs stand apart in the source and are kept apart here. Positions of bridges follow the written chain, without caps; N, C: chain ends. Non-standard residues stand in square brackets, D forms with d. Residues, ends and D or L forms follow the SMILES beside them. Phe(4-COOH) = N[C@@H](Cc1ccc(C(=O)O)cc1)C(=O)O; Bip = N[C@@H](Cc1ccc(-c2ccccc2)cc1)C(=O)O; Arg(Me2s) = CN=C(NC)NCCC[C@H](N)C(=O)O; Phe(4-I) = N[C@@H](Cc1ccc(I)cc1)C(=O)O; Lys(Me2) = CN(C)CCCC[C@H](N)C(=O)O; NMeF = CN[C@@H](Cc1ccccc1)C(=O)O; Phg = N[C@H](C(=O)O)c1ccccc1

Columns and labels:
Assay in all cases: cell-based
[1] = molecular target: hNav1.7 (Homo sapiens, UniProt Q15858); format: cell-based; conditions: IonWorks Quattro, use, […], read-out: IWQ Use Nav1.7
[2] = molecular target: hNav1.3 (Homo sapiens, UniProt Q9NY46); conditions: IonWorks Quattro, use, […], read-out: IWQ Use Nav1.3
[3] = molecular target: hNav1.5 (Homo sapiens, UniProt Q14524); conditions: IonWorks Quattro, use, […], read-out: IWQ Use Nav1.5

hNav1.7, sequence (Q15858 whole entry, looked up): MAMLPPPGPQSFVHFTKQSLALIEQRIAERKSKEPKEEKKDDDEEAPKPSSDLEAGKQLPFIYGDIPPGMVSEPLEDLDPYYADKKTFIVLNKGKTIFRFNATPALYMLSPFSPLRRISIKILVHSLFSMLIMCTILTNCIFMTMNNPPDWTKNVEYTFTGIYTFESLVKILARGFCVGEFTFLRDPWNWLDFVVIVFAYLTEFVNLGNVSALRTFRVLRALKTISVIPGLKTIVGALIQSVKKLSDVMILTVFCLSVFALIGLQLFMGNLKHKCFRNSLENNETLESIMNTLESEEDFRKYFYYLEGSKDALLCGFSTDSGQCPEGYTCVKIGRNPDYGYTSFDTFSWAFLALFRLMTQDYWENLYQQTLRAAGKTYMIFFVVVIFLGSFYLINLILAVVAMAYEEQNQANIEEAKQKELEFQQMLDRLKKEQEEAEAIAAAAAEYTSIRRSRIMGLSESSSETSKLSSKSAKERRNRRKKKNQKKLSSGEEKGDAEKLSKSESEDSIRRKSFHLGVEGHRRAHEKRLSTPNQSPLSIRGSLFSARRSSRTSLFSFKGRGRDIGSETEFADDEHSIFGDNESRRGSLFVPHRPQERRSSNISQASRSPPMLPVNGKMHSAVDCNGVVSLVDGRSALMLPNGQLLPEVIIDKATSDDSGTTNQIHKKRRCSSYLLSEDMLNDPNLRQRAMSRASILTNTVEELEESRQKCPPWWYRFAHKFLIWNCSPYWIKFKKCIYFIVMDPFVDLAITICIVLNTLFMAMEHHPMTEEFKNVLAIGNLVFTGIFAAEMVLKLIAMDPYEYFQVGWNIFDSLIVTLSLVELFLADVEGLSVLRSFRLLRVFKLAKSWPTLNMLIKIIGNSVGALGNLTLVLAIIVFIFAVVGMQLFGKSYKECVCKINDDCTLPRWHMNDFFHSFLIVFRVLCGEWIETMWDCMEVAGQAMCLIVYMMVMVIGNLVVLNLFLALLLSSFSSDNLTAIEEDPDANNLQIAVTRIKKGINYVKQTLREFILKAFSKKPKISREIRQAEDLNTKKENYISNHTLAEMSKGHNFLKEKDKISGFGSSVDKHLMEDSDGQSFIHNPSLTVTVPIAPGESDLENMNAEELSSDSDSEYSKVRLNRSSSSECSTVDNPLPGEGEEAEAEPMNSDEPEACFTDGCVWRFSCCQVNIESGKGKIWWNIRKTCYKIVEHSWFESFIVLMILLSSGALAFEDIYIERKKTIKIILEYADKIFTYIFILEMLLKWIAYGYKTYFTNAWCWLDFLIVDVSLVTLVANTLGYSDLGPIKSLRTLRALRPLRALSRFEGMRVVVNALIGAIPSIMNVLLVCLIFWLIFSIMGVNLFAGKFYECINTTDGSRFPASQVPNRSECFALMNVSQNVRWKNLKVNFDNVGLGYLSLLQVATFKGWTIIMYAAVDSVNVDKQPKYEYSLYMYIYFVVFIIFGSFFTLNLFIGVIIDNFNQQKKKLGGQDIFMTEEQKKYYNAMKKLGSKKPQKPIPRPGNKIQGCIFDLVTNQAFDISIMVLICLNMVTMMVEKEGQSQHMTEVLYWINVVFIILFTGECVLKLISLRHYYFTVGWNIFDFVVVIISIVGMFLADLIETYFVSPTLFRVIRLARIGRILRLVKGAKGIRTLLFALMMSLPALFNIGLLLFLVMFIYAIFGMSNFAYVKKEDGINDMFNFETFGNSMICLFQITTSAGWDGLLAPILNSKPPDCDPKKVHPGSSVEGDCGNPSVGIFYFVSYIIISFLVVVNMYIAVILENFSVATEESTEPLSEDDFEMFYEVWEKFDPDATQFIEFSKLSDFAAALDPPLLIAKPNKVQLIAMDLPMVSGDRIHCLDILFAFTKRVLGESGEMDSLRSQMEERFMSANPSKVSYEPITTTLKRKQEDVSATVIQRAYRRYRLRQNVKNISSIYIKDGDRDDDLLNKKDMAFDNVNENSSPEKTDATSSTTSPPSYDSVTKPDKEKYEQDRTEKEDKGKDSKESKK
hNav1.3, sequence (Q9NY46 whole entry, looked up): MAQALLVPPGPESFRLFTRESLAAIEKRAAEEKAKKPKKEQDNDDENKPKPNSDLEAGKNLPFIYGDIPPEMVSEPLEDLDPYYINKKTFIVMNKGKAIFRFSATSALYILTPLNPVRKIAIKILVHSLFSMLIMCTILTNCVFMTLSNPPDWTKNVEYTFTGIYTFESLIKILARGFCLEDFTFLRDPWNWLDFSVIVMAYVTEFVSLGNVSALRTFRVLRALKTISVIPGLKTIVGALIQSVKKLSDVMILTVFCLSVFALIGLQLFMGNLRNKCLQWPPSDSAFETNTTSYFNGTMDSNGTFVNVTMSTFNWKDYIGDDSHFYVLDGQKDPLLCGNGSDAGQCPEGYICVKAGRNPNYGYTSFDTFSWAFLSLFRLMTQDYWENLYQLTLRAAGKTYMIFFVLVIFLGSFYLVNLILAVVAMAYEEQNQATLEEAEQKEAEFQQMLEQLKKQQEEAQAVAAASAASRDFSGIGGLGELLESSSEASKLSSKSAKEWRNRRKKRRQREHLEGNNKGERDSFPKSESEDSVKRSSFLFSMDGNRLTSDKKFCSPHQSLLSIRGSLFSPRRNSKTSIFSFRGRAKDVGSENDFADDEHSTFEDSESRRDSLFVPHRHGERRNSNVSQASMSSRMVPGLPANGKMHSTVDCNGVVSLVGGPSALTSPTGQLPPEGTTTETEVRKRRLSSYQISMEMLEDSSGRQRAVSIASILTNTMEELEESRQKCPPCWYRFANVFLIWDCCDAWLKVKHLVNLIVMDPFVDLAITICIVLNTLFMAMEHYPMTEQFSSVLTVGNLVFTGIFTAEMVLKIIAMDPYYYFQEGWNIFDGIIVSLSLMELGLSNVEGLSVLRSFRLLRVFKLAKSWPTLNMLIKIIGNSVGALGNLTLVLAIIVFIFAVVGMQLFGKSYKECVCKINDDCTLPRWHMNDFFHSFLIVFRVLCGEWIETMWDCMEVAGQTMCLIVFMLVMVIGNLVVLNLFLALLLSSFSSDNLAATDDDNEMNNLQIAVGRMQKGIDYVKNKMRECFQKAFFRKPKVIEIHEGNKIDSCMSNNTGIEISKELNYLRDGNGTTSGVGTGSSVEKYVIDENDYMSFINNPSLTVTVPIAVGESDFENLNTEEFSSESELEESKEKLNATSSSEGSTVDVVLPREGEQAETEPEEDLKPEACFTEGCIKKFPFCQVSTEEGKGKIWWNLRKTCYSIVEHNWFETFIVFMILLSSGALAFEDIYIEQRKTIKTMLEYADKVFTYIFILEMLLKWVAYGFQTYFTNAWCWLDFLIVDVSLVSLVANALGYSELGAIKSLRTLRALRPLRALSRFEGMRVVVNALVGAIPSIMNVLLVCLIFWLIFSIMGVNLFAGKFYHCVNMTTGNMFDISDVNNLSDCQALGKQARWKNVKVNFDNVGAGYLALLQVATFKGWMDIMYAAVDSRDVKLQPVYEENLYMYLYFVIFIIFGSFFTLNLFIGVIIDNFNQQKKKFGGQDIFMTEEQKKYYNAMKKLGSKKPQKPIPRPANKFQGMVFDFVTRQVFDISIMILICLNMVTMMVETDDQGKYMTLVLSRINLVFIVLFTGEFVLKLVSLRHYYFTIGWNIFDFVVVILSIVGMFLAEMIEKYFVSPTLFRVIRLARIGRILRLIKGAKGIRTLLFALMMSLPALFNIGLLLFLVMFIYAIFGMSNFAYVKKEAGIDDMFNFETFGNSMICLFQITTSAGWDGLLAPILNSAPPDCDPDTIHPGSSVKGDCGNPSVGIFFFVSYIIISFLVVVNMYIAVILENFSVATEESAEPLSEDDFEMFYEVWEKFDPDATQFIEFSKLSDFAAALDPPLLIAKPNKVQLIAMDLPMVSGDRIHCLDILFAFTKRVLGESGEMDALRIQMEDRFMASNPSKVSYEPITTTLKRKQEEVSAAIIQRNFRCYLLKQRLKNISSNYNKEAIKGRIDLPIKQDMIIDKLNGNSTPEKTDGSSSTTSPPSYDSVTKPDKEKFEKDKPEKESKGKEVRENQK

CC[C@H](C)[C@@H]1NC(=O)[C@@H]2CSSC[C@@H]3NC(=O)[C@H](C(C)C)NC(=O)[C@H](CC(C)C)NC(=O)[C@H](CC(N)=O)NC(=O)[C@@H]4CCCN4C(=O)[C@H](CCCNC(=N)N)NC(=O)[C@H](CSSC[C@H](NC(=O)[C@@H](N)CC(=O)O)C(=O)N[C@@H](CC(C)C)C(=O)NCC(=O)N[C@@H](Cc4ccccc4)C(=O)N[C@@H](CCSC)C(=O)N[C@@H](CCCNC(=N)N)C(=O)N[C@@H](CCCCN)C(=O)N2)NC(=O)[C@H](CSSC[C@@H](C(=O)N[C@@H](CCCCN)C(=O)N[C@@H](Cc2ccc(O)cc2)C(=O)N[C@H](C(=O)N[C@@H](Cc2ccccc2)C(N)=O)C(C)C)NC(=O)[C@H](Cc2c[nH]c4ccccc24)NC(=O)[C@H](CCCCN)NC(=O)[C@H](CCCNC(=NC)NC)NC(=O)[C@H]([C@@H](C)O)NC(=O)[C@H](CCCNC(=N)N)NC(=O)[C@H](CO)NC3=O)NC(=O)[C@H](CCCCN)NC(=O)[C@H](CC(=O)O)NC(=O)[C@H](CC(N)=O)NC(=O)[C@H](CC(=O)O)NC(=O)[C@@H]2CCCN2C1=O [compound 353] (H-DCLGFMRKCIPDNDKCCRPNLVCSRT[Arg(Me2s)]KWCKYVF-NH2; disulfide 2-17, 9-23, 16-30)
IC50 ([1]; Table 23): 2 µM
IC50 ([2]; Table 23): 2.42 µM
IC50 ([3]; Table 23): 8.32 µM

CC[C@H](C)[C@@H]1NC(=O)[C@@H]2CSSC[C@@H]3NC(=O)[C@H](C(C)C)NC(=O)[C@H](CC(C)C)NC(=O)[C@H](CC(N)=O)NC(=O)[C@@H]4CCCN4C(=O)[C@H](CCCNC(=N)N)NC(=O)[C@H](CSSC[C@H](NC(=O)[C@@H](N)CC(=O)O)C(=O)N[C@@H](CC(C)C)C(=O)NCC(=O)N[C@@H](Cc4ccccc4)C(=O)N[C@@H](CCSC)C(=O)N[C@@H](CCCNC(=N)N)C(=O)N[C@@H](CCCCN)C(=O)N2)NC(=O)[C@H](CSSC[C@@H](C(=O)N[C@@H](CCCCN)C(=O)N[C@@H](Cc2ccc(O)cc2)C(=O)N[C@H](C(=O)N[C@@H](Cc2ccccc2)C(N)=O)C(C)C)NC(=O)[C@H](Cc2c[nH]c4ccccc24)NC(=O)[C@H](CCCCN)NC(=O)[C@H](CCCCN(C)C)NC(=O)[C@H]([C@@H](C)O)NC(=O)[C@H](CCCNC(=N)N)NC(=O)[C@H](CO)NC3=O)NC(=O)[C@H](CCCCN)NC(=O)[C@H](CC(=O)O)NC(=O)[C@H](CC(N)=O)NC(=O)[C@H](CC(=O)O)NC(=O)[C@@H]2CCCN2C1=O [compound 354] (H-DCLGFMRKCIPDNDKCCRPNLVCSRT[Lys(Me2)]KWCKYVF-NH2; disulfide 2-17, 9-23, 16-30)
IC50 ([1]; Table 23): 7 µM
IC50 ([2]; Table 23): 3.82 µM
IC50 ([3]; Table 23): 12.4 µM

CC[C@H](C)[C@@H]1NC(=O)[C@@H]2CSSC[C@@H]3NC(=O)[C@H](C(C)C)NC(=O)[C@H](CC(C)C)NC(=O)[C@H](CC(N)=O)NC(=O)[C@@H]4CCCN4C(=O)[C@H](CCCNC(=N)N)NC(=O)[C@H](CSSC[C@H](NC(=O)[C@@H](N)CC(=O)O)C(=O)N[C@@H](CC(C)C)C(=O)NCC(=O)N[C@@H](Cc4ccccc4)C(=O)N[C@@H](CCSC)C(=O)N[C@@H](CCCNC(=N)N)C(=O)N[C@@H](CCCCN)C(=O)N2)NC(=O)[C@H](CSSC[C@@H](C(=O)N[C@@H](CCCCN)C(=O)N[C@@H](Cc2ccc(O)cc2)C(=O)N[C@H](C(=O)N[C@@H](Cc2ccccc2)C(N)=O)C(C)C)NC(=O)[C@H](Cc2ccc(I)cc2)NC(=O)[C@H](CCCCN)NC(=O)[C@H](Cc2c[nH]cn2)NC(=O)[C@H]([C@@H](C)O)NC(=O)[C@H](CCCNC(=N)N)NC(=O)[C@H](CO)NC3=O)NC(=O)[C@H](CCCCN)NC(=O)[C@H](CC(=O)O)NC(=O)[C@H](CC(N)=O)NC(=O)[C@H](CC(=O)O)NC(=O)[C@@H]2CCCN2C1=O [compound 358] (H-DCLGFMRKCIPDNDKCCRPNLVCSRTHK[Phe(4-I)]CKYVF-NH2; disulfide 2-17, 9-23, 16-30)
IC50 ([1]; Table 24): 1.01 µM
IC50 ([2]; Table 24): 1.27 µM
IC50 ([3]; Table 24): 14.9 µM

CC[C@H](C)[C@@H]1NC(=O)[C@@H]2CSSC[C@@H]3NC(=O)[C@H](C(C)C)NC(=O)[C@H](CC(C)C)NC(=O)[C@H](CC(N)=O)NC(=O)[C@@H]4CCCN4C(=O)[C@H](CCCNC(=N)N)NC(=O)[C@H](CSSC[C@H](NC(=O)[C@@H](N)CC(=O)O)C(=O)N[C@@H](CC(C)C)C(=O)NCC(=O)N[C@@H](Cc4ccccc4)C(=O)N[C@@H](CCSC)C(=O)N[C@@H](CCCNC(=N)N)C(=O)N[C@@H](CCCCN)C(=O)N2)NC(=O)[C@H](CSSC[C@@H](C(=O)N[C@@H](CCCCN)C(=O)N[C@@H](Cc2ccc(O)cc2)C(=O)N[C@H](C(=O)N[C@@H](Cc2ccccc2)C(N)=O)C(C)C)NC(=O)[C@H](Cc2ccccc2)N(C)C(=O)[C@H](CCCCN)NC(=O)[C@H](Cc2c[nH]cn2)NC(=O)[C@H]([C@@H](C)O)NC(=O)[C@H](CCCNC(=N)N)NC(=O)[C@H](CO)NC3=O)NC(=O)[C@H](CCCCN)NC(=O)[C@H](CC(=O)O)NC(=O)[C@H](CC(N)=O)NC(=O)[C@H](CC(=O)O)NC(=O)[C@@H]2CCCN2C1=O [compound 359] (H-DCLGFMRKCIPDNDKCCRPNLVCSRTHK[NMeF]CKYVF-NH2; disulfide 2-17, 9-23, 16-30)
IC50 ([1]; Table 24): 19.2 µM
IC50 ([2]; Table 24): 7.39 µM
IC50 ([3]; Table 24): 18.8 µM

CC[C@H](C)[C@@H]1NC(=O)[C@@H]2CSSC[C@@H]3NC(=O)[C@H](C(C)C)NC(=O)[C@H](CC(C)C)NC(=O)[C@H](CC(N)=O)NC(=O)[C@@H]4CCCN4C(=O)[C@H](CCCNC(=N)N)NC(=O)[C@H](CSSC[C@H](NC(=O)[C@@H](N)CC(=O)O)C(=O)N[C@@H](CC(C)C)C(=O)NCC(=O)N[C@@H](Cc4ccccc4)C(=O)N[C@@H](CCSC)C(=O)N[C@@H](CCCNC(=N)N)C(=O)N[C@@H](CCCCN)C(=O)N2)NC(=O)[C@H](CSSC[C@@H](C(=O)N[C@@H](CCCCN)C(=O)N[C@@H](Cc2ccc(O)cc2)C(=O)N[C@H](C(=O)N[C@@H](Cc2ccccc2)C(N)=O)C(C)C)NC(=O)[C@H](Cc2ccc(-c4ccccc4)cc2)NC(=O)[C@H](CCCCN)NC(=O)[C@H](Cc2c[nH]cn2)NC(=O)[C@H]([C@@H](C)O)NC(=O)[C@H](CCCNC(=N)N)NC(=O)[C@H](CO)NC3=O)NC(=O)[C@H](CCCCN)NC(=O)[C@H](CC(=O)O)NC(=O)[C@H](CC(N)=O)NC(=O)[C@H](CC(=O)O)NC(=O)[C@@H]2CCCN2C1=O [compound 360] (H-DCLGFMRKCIPDNDKCCRPNLVCSRTHK[Bip]CKYVF-NH2; disulfide 2-17, 9-23, 16-30)
IC50 ([1]; Table 24): 4.79 µM
IC50 ([2]; Table 24): 6.95 µM
IC50 ([3]; Table 24): 9.77 µM

CC[C@H](C)[C@@H]1NC(=O)[C@@H]2CSSC[C@@H]3NC(=O)[C@H](C(C)C)NC(=O)[C@H](CC(C)C)NC(=O)[C@H](CC(N)=O)NC(=O)[C@@H]4CCCN4C(=O)[C@H](CCCNC(=N)N)NC(=O)[C@H](CSSC[C@H](NC(=O)[C@@H](N)CC(=O)O)C(=O)N[C@@H](CC(C)C)C(=O)NCC(=O)N[C@@H](Cc4ccccc4)C(=O)N[C@@H](CCSC)C(=O)N[C@@H](CCCNC(=N)N)C(=O)N[C@@H](CCCCN)C(=O)N2)NC(=O)[C@H](CSSC[C@@H](C(=O)N[C@@H](CCCCN)C(=O)N[C@@H](Cc2ccc(O)cc2)C(=O)N[C@H](C(=O)N[C@@H](Cc2ccccc2)C(N)=O)C(C)C)NC(=O)[C@H](Cc2cn(C)c4ccccc24)NC(=O)[C@H](CCCCN)NC(=O)[C@H](Cc2c[nH]cn2)NC(=O)[C@H]([C@@H](C)O)NC(=O)[C@H](CCCNC(=N)N)NC(=O)[C@H](CO)NC3=O)NC(=O)[C@H](CCCCN)NC(=O)[C@H](CC(=O)O)NC(=O)[C@H](CC(N)=O)NC(=O)[C@H](CC(=O)O)NC(=O)[C@@H]2CCCN2C1=O [compound 361]
IC50 ([1]; Table 24): 3.89 µM
IC50 ([2]; Table 24): 4.58 µM
IC50 ([3]; Table 24): 12.2 µM

CC[C@H](C)[C@@H]1NC(=O)[C@@H]2CSSC[C@@H]3NC(=O)[C@H](C(C)C)NC(=O)[C@H](CC(C)C)NC(=O)[C@H](CC(N)=O)NC(=O)[C@@H]4CCCN4C(=O)[C@H](CCCNC(=N)N)NC(=O)[C@H](CSSC[C@H](NC(=O)[C@@H](N)CC(=O)O)C(=O)N[C@@H](CC(C)C)C(=O)NCC(=O)N[C@@H](Cc4ccccc4)C(=O)N[C@@H](CCSC)C(=O)N[C@@H](CCCNC(=N)N)C(=O)N[C@@H](CCCCN)C(=O)N2)NC(=O)[C@H](CSSC[C@@H](C(=O)N[C@@H](CCCCN)C(=O)N[C@@H](Cc2ccc(O)cc2)C(=O)N[C@H](C(=O)N[C@@H](Cc2ccccc2)C(N)=O)C(C)C)NC(=O)[C@H](c2ccccc2)NC(=O)[C@H](CCCCN)NC(=O)[C@H](Cc2c[nH]cn2)NC(=O)[C@H]([C@@H](C)O)NC(=O)[C@H](CCCNC(=N)N)NC(=O)[C@H](CO)NC3=O)NC(=O)[C@H](CCCCN)NC(=O)[C@H](CC(=O)O)NC(=O)[C@H](CC(N)=O)NC(=O)[C@H](CC(=O)O)NC(=O)[C@@H]2CCCN2C1=O [compound 362] (H-DCLGFMRKCIPDNDKCCRPNLVCSRTHK[Phg]CKYVF-NH2; disulfide 2-17, 9-23, 16-30)
IC50 ([1]; Table 24): 5.52 µM
IC50 ([2]; Table 24): 3.18 µM
IC50 ([3]; Table 24): 7.85 µM

CC[C@H](C)[C@@H]1NC(=O)[C@@H]2CSSC[C@@H]3NC(=O)[C@H](C(C)C)NC(=O)[C@H](CC(C)C)NC(=O)[C@H](CC(N)=O)NC(=O)[C@@H]4CCCN4C(=O)[C@H](CCCNC(=N)N)NC(=O)[C@H](CSSC[C@H](NC(=O)[C@@H](N)CC(=O)O)C(=O)N[C@@H](CC(C)C)C(=O)NCC(=O)N[C@@H](Cc4ccccc4)C(=O)N[C@@H](CCSC)C(=O)N[C@@H](CCCNC(=N)N)C(=O)N[C@@H](CCCCN)C(=O)N2)NC(=O)[C@H](CSSC[C@@H](C(=O)N[C@@H](CCCCN)C(=O)N[C@@H](Cc2ccc(O)cc2)C(=O)N[C@H](C(=O)N[C@@H](Cc2ccccc2)C(N)=O)C(C)C)NC(=O)[C@H](Cc2ccc(C(=O)O)cc2)NC(=O)[C@H](CCCCN)NC(=O)[C@H](Cc2c[nH]cn2)NC(=O)[C@H]([C@@H](C)O)NC(=O)[C@H](CCCNC(=N)N)NC(=O)[C@H](CO)NC3=O)NC(=O)[C@H](CCCCN)NC(=O)[C@H](CC(=O)O)NC(=O)[C@H](CC(N)=O)NC(=O)[C@H](CC(=O)O)NC(=O)[C@@H]2CCCN2C1=O [compound 363] (H-DCLGFMRKCIPDNDKCCRPNLVCSRTHK[Phe(4-COOH)]CKYVF-NH2; disulfide 2-17, 9-23, 16-30)
IC50 ([1]; Table 24): 15 µM
IC50 ([2]; Table 24): 14.9 µM
IC50 ([3]; Table 24): 18.8 µM
